Reference: US20120232058A1, “SUBSTITUTED PYRIDINE DERIVATIVES AND THEIR MEDICAL USE” (NEUROSEARCH A/S, priority 2009, published 2012)

Legend:
human Kv7.2+3 [1] = molecular target: T1, human Kv7.2+3 (Homo sapiens, UniProt O43525+O43526); experiment: patch-clamp, HEK293 cell lines stably expressing human Kv7.2+3 channels; format: cell-based; parameters: expressed in transfected cells; settings: −30 mV, 20 ms, baseline current defined as 100%
From the text: The effect obtained by these channel activators is described as a percentage increase in baseline current at a given concentration. The baseline current is defined as 100%, and an increase in current is expressed relative to this, i.e. an increase from 1 nA to 1.2 nA is reported as 120%.

human Kv7.2+3 [2] = molecular target: T1, human Kv7.2+3; experiment: FLIPR-based thallium influx characterization of Kv7.2+3 modulators; format: cell-based; parameters: expressed in transfected cells; host or cells: HEK293; settings: for EC50: HEK293 cells over-expressing human Kv7.2+3, Tl+ influx, relative to retigabine control responses; for Efficacy: maximal response relative to the reference (retigabine) response
Description: This experiment determines the ability of a test compound to modulate the activity of Kv7.2+3 channels heterologously expressed in human HEK293 cells. The ability is determined relative to retigabine. The activity is determined using a standard thallium (I) sensitive assay, e.g. using a fluorometric method in a Fluorescent Image Plate Reader (FLIPR) as described below in more detail.
Full concentration/response curves are generated and EC50 values are calculated based on max values. EC50 values (Effective Concentration) represent the concentration of the test substance, at which 50% of the channel activity is obtained when compared to retigabine control responses. Maximal response determined relative to the reference (retigabine) response is calculated.
Human HEK293 cells over-expressing human Kv7.2+3 are grown in culture medium (DMEM supplemented with 10% foetal bovine serum), in polystyrene culture flasks ([…]) in a humidified atmosphere of 5% CO2 in air, at 37° C. Cell confluence should be 80-90% on day of plating. Cells are rinsed with 4 ml of PBS (phosphate buffered saline) and incubated 2 min with 1 ml of Trypsin-EDTA. After addition of 25 ml of culture medium cells are re-suspended by trituration with a 25 ml pipette.
The cells are seeded at a density of ˜3×10^6 cells/ml (25 μl/well) in black-walled, clear bottom, 384-well plates pre-treated with 0.01 g/I poly-D-lysin (20 μl/well for 30 min). Plated cells were allowed to proliferate for 24 h before loading with dye.
BTC-AM ([…], Invitrogen) is added 25.5 μl DMSO. The BTC-AM stock solution (2 mM) is diluted to a final concentration of 2 μM in Cl^− free assay buffer (in mM: 140 Na^+-gluconate, 2.5 K^+-gluconate, 6 Ca2^+-gluconate, 1 Mg^2+ gluconate, 5 glucose, 10 HEPES, pH 7.3) containing 2 μM ouabain, 2 mM amaranth and 1 mM tartrazine. […]
After the loading period, the TI^+-sensitive BTC fluorescence signal is measured over time using a FLIPR.
• Temperature: Room temp. • First addition: 12 μl test or control compound after 15 sec at a rate of 30 μl/sec and starting height of 20 μl • Second addition: 12 μl stimulus buffer (CI^− free assay buffer supplemented with 1 mM TI2SO4, 5 mM K2SO4 as well as the quenchers amaranth (2 mM) and tartrazine (1 mM)) is added after an additional 3 minutes at a rate of 30 μl/sec and starting height of 30 μl • Reading intervals: First sequence—3 sec×5, 2 sec×24 and 5 sec×25 Second sequence—1 sec×5, 2 sec×24 and 5 sec×36 Addition plates (compound plate and stimulus plate) are placed in positions 2 and 3, respectively. […] Fluorescence obtained after stimulation is corrected for the mean basal fluorescence (in Cl^− free assay buffer). […]

| Compound | IK (%) (human Kv7.2+3 [1]; conc. 0.03 μM) | IK (%) (human Kv7.2+3 [1]; conc. 0.3 μM) | EC50 (human Kv7.2+3 [2]) | Efficacy (human Kv7.2+3 [2]) |
| --- | --- | --- | --- | --- |
| Cc1ccoc1C(=O)Nc1c(C)cc(N2CCCOCC2)nc1C(C)C [Compound 1.1, 3-Methyl-furan-2-carboxylic acid(2-isopropyl-4-methyl-6-[1,4]oxazepan-4-yl-pyridin-3-yl)-amide] | 177 (n = 2) % | 249% | 34 nM | 82% |
| Cc1ccoc1C(=O)Nc1c(C)cc(N2CCCOCC2)nc1C [Compound 1.2, 3-Methyl-furan-2-carboxylic acid(2,4-dimethyl-6-[1,4]oxazepan-4-yl-pyridin-3-yl)-amide] |  | 180% | 4100 nM | 102% |
